Data: US20220334101A1, “MODULATING EXTRACELLULAR MATRIX MOVEMENT” (Helmholtz Zentrum Muenchen - Deutsches Forschungszentrum …, priority 2019, published 2022)
Structures can show the parent of a compound that is named as a salt.

What follows are molecules tested on skin-fascia explants (assay: Scar-in-a-dish (SCAD) ex vivo skin-fascia explant assay, screening of Prestwick chemical library). Conditions: molecules of table 1 named as inhibitors of ECM movement.
Assay type: cell-based, mouse
Text: Post born Day 0 (P0) neonates of C57BL/6J wild type mouse were first sacrificed by decapitation. Then dorsal back skin was isolated to make 2 mm full thickness biopsies (0 2 mm, Stiefel) that included the epidermis, dermis and deep subcutaneous fascia layers. The whole skin tissue explant system is termed as scar-in-a-dish (SCAD) assay (Patent Application no. PLA17A13). The SCAD tissue was maintained in DMEM/F12 cell culture medium (Life Technologies) supplemented with 10% FBS (Life Technologies), 1% non-essential amino acid (Thermo Fisher), 1% Glutamax (Thermo Fisher), 1% penicillin and streptomycin (Thermo Fisher) in a 37° C. incubator supplied with […] and 5% CO2. Medium was changed every other day until day 5 when SCADs were collected and fixed for histology analysis. To be noticed, the excised skin was submerged […] in culture media, which confined the scar-prone fibroblasts to the explant and discouraged their adherence to the tissue culture plate.
The PCL provides an additional advantage as all chemicals are of stable physicochemical properties, show a high range of chemical diversity, and are with known bioavailability and safety data in humans. All these information helps to reduce the probability of screening low-quality hits and save the costs of preliminary screening process.
In order to accommodate to medium scale screening approach, the Inventors adapted the SCAD explant system into 96-well plate (Falcon) formats, with each well contained one biopsy. […] Plate and liquid handling were performed using a high-throughput screening platform system composed of a Sciclone G3 Liquid Handler from PerkinElmer (Waltham, Mass., USA). On Day 0 tissues were treated either with the respective compound (1 mM stock solution) dissolved in 100% dimethyl sulfoxide (DMSO, Carl Roth) or DMSO alone. 0.5 μl of compounds/DMSO were transferred with a 96-array head to 200 μl DMEM/F12 medium per well to keep the final DMSO concentrations at […]. Tissues were then incubated (37° C.; 5% CO2) for 72 h prior to a second round of compound treatment, which was performed by exchanging cell culture medium per well and transferring […] of compounds/DMSO into the fresh medium. After an incubation time of another 48 h (37° C.; 5% CO2) the tissues were harvested and fixed for histological processing and imaging.
Briefly, the Inventors excised 2-mm full thickness skin biopsies that included epidermis, dermis, and deep subcutaneous fascia layers from mouse backs (see Methods). Skin-fascia explants were submerged fascia-side up in culture media, to confine scar-prone fibroblasts to the explant and discourage their adherence to the tissue culture plate.
The Prestwick library has selected a diverse array of chemicals with strong physicochemical properties, with known bioavailability and clinical safety data. The library is an ideal place to start screening as it covers all major therapeutic chemical classes such as central nervous system, cardiovascular system, metabolism, and infectious diseases.

| Compound | phenotype as inhibitor of ECM movement |
| --- | --- |
| [H]/N=C(/NCCCCC)N/N=C/c1c[nH]c2ccc(OC)cc12 [Tegaserod maleate] | anti-fibrotic phenotype |
| O=C(c1ccccc1)c1ccc2n1CCC2C(=O)O (stereo not shown) [Ketorolac tromethamine] | anti-fibrotic phenotype |
| Nc1ccc(S(=O)(=O)Nc2cnc3ccccc3n2)cc1 [Sulfaquinoxaline sodium salt] | anti-fibrotic phenotype |
| C[C@H]1NC(=O)NC1=O [Methylhydantoin-5-(D)] | anti-fibrotic phenotype |
| CC(=O)N(CC(O)CN(C(C)=O)c1c(I)c(C(=O)NCC(O)CO)c(I)c(C(=O)NCC(O)CO)c1I)c1c(I)c(C(=O)NCC(O)CO)c(I)c(C(=O)NCC(O)CO)c1I (stereo not shown) [Iodixanol, lodixanol] | anti-fibrotic phenotype |
| C[C@@H]1C[C@H]2[C@@H]3C[C@H](F)C4=CC(=O)C=C[C@]4(C)[C@@]3(F)[C@@H](O)C[C@]2(C)[C@@]1(O)C(=O)COC(=O)C(C)(C)C [Flumethasone pivalate] | anti-fibrotic phenotype |
| CC(=O)[C@H]1CC[C@H]2[C@@H]3C[C@H](C)C4=CC(=O)CC[C@]4(C)[C@H]3[C@@H](O)C[C@]12C [Medrysone] | anti-fibrotic phenotype |
| CC1(C)S[C@@H]2[C@H](NC(=O)Cc3ccccc3)C(=O)N2[C@H]1C(=O)O.CC1(C)S[C@@H]2[C@H](NC(=O)Cc3ccccc3)C(=O)N2[C@H]1C(=O)O.c1ccc(CNCCNCc2ccccc2)cc1 [Benzathine benzylpenicillin] | anti-fibrotic phenotype |
| C=C1/C(=C\C=C2/CCC[C@]3(C)[C@@H]([C@H](C)CCCC(C)C)CC[C@@H]23)C[C@@H](O)C[C@@H]1O [Alfacalcidol] | anti-fibrotic phenotype |
| CN1CCOC(c2ccccc2)c2ccccc2C1 (stereo not shown) [Nefopam hydrochloride] | anti-fibrotic phenotype |
| CC(C)N(CCC(C(N)=O)(c1ccccc1)c1ccccn1)C(C)C (stereo not shown) [Disopyramide] | anti-fibrotic phenotype |
| COc1cccc2c1C(=O)c1c(O)c3c(c(O)c1C2=O)C[C@@](O)(C(=O)CO)C[C@@H]3O[C@H]1C[C@H](N)[C@H](O)[C@H](C)O1 [Doxorubicin hydrochloride] | anti-fibrotic phenotype |
| NC(N)=Nc1nc(CSCCC(N)=NS(N)(=O)=O)cs1 [Famotidine] | anti-fibrotic phenotype |
| CCOc1cc(CC(=O)N[C@@H](CC(C)C)c2ccccc2N2CCCCC2)ccc1C(=O)O [Repaglinide] | anti-fibrotic phenotype |
| CC[C@]12CCCN3CCc4c(n(c5ccccc45)C(=O)C1)[C@@H]32 [Eburnamonine (−)] | anti-fibrotic phenotype |
| C[N+](C)(CCOc1ccccc1)Cc1ccccc1.O=C([O-])c1cc2ccccc2cc1O [Bephenium hydroxynaphthoate] | anti-fibrotic phenotype |
| COc1ccc2c(c1)N(C[C@H](C)CN(C)C)c1ccccc1S2.O=C(O)/C=C\C(=O)O [Methotrimeprazine maleat salt] | anti-fibrotic phenotype |
| CCN1CCN(C(=O)N[C@@H](C(=O)N[C@@H]2C(=O)N3[C@@H]2SC(C)(C)[C@@H]3C(=O)O)c2ccccc2)C(=O)C1=O [Piperacillin sodium salt] | anti-fibrotic phenotype |
| CN1CCCC(n2nc(Cc3ccc(Cl)cc3)c3ccccc3c2=O)CC1 (stereo not shown) [Azelastine HCl] | anti-fibrotic phenotype |
| CC(C)/N=c1\cc2n(-c3ccc(Cl)cc3)c3ccccc3nc-2cc1Nc1ccc(Cl)cc1 [Clofazimine] | anti-fibrotic phenotype |
| O=c1[nH]c2ccccc2n1CCCN1CCC(n2c(=O)[nH]c3cc(Cl)ccc32)CC1 [Domperidone] | anti-fibrotic phenotype |
| CC(C)(C)C(=O)OCOC(=O)[C@@H]1N2C(=O)[C@@H](NC(=O)[C@H](N)c3ccccc3)[C@H]2SC1(C)C [Pivampicillin] | anti-fibrotic phenotype |
